Test results as given in patent US20150204851A1, “METHODS FOR IDENTIFYING DIABETES DRUGS” (Metanomics Health GmbH, priority 2012, published 2015).
Structures can show the parent of a compound that is named as a salt.

Key:
[1] = Mehta 2009; cited from earlier work
glyoxylate [2] = conditions: cultured human cells; Berman 2005; cited from earlier work
glyoxylate [3] = test: Glyoxylate level in C. elegans after treatment, GC-MS; format: in vivo, Caenorhabditis elegans; conditions: for Effect on native/endogenous glyoxylate levels in C. elegans: single treatment: 50 mM metformin or 20 mM glyoxylate; for Ratio of glyoxylate concentrations in C. elegans, treatment/control: wild type on growth medium, 20 mM glyoxylate and/or 50 mM metformin, normalized to median of control
Method: Nematodes were harvested and extensively washed with buffer and the resulting pellet was disrupted using glass beats in combination with mechanical force. Samples were extracted with methyl-tert-butylether, methanol and extraction buffer and sonicated for 15 minutes. 50% of a mixture of water/methanol (3:1) was added, vigorously mixed and centrifuged. The polar phase was evaporated to dryness. After addition of water and a mixture of ethanol and dichlormethan, the sample was fractioned into an aqueous, polar phase and an organic, lipophilic phase. 13C-glyoxylate was added as internal standard and the extracts were derivatized in the following way: The methoximation of the carbonyl groups was carried out by reaction with methoxyamine hydrochloride (20 mg/mL in pyridine, 50 μL for 1.5 hours at 60° C.) in a tightly sealed vessel. Finally, the derivatization with 50 μL of N-methyl-N-(trimethylsilyl)-2,2,2-trifluoroacetamide (MSTFA) was carried out for 30 minutes at 60° C., again in the tightly sealed vessel. The final volume before injection into the GC was 100 μL. The GC-MS systems consist of an Agilent 6890 GC coupled to an Agilent 5973 MSD. Autosamplers were CompiPal or GCPaI from CTC.
For the analysis a usual commercial capillary separation column (30 m×0.25 mm×0.5 μm) with an arylene/poly-methyl-siloxane stationary phases was used (for example: DB-XLB, Agilent Technologies). 0.5 μL of the final volume was injected splitless and the oven temperature program was started at 70° C. and ended at 320° C. with different heating rates starting with low rates in order to achieve a sufficient chromatographic separation and number of scans for glyoxylate analysis and changing to a high heating rate after glyoxylate elution. Furthermore usual GC-MS standard conditions, for example constant flow with nominal 1 to 1.7 mL/min. and helium as the mobile phase gas and standard tune conditions were applied. Ionization was done by electron impact with 70 eV, scanning 2 characteristic mass fragments of the glyoxylate derivate and its internal standard, respectively within an appropriate time window. Scan rate was 25 scans/sec. Glyoxylate values were normalized to Total Ion Count of each sample to adjust individual deviation of sample volume. Furthermore, the data were normalized to the median of the control samples leading to ratios to control.
We tested the hypothesis that metformin suppresses glyoxylate concentration in in vivo experiments with the model worm Caenorhabditis elegans, by means of its treatment with glyoxylate and metformin separately and in combination of glyoxylate plus metformin.
The experiment included four treatment groups:
1) C. elegans, wild type (wt)—on growth medium (no treatment, control).
2) C. elegans, wt—on growth medium plus 50 mM metformin (methodology for Metformin application and doses as described in Onken & Driscoll (Onken B, Driscoll M (2010) Metformin induces a dietary restriction-like state and the oxidative stress response to extend C. elegans healthspan via AMPK, LKB1, and SKN-1. PLoS ONE 5(1): e8758.).
3) C. elegans, wt—on growth medium plus 20 mM glyoxylate.
4) C. elegans, wt—on growth medium plus 20 mM glyoxylate and 50 mM metformin.
From the GC-MS metabolite profiles, total ion count (TIC) as a measure of the absolute intensity value was calculated for each batch. Measured glyoxylate levels were then volume-normalized, using TICs.

glyoxylate [4] = test: Plasma glyoxylate in rats dosed 28 days by gavage, GC-MS metabolite profiling; format: in vivo, rat; conditions: for Ratio treatment/control, plasma glyoxylate: gavage once daily
Method: Two groups of each 5 male and female rats was dosed once daily with the indicated compounds with a different dose per group (see below) over 28 days.
Each dose group in the studies consisted of five rats per sex. Additional groups of each 15 male and 15 female animals served as controls. Before starting the treatment period, animals, which were 62-64 days old when supplied, were acclimatized to the housing and environmental conditions for 7 days. All animals of the animal population were kept under the same constant temerature (20-24±3° C.) and the same constant humidity (30-70%). The animals of the animal population were fed ad libitum. The food to be used was essentially free of chemical or microbial contaminants. Drinking water was also offered ad libitum. Accordingly, the water was free of chemical and microbial contaminants as laid down in the European Drinking Water Directive 98/83/EG. The illumination period was 12 hours light followed by 12 hours darkness (12 hours light, from 6:00 to 18:00, and 12 hours darkness, from 18:00 to 6:00). The studies were performed in an AAALAC-approved laboratory in accordance with the German Animal Welfare Act and the European Council Directive 86/609/EE. The test system was arranged according to the OECD 407 guideline for the testing of chemicals for repeated dose 28-day oral toxicity study in rodents. The test substance was dosed and administered as follows:
Metformin hydrochloride was administered by gavage (high dose group at 1 g/kg body weight, low dose group at 0.2 g/kg body weight), in drinking water containing 0.5% Carboxymethyl cellulose (Tylose CB30000) (administration volume: 10 ml/kg body weight).
In the morning of day 7, 14, and 28, blood was taken from the retroorbital venous plexus from fasted anaesthetized animals. From each animal, 1 ml of blood was collected with EDTA as anticoagulant. The samples were centrifuged for generation of plasma. All plasma samples were covered with a N2 atmosphere and then stored at −80° C. until analysis.
For mass spectrometry-based metabolite profiling analyses plasma samples were extracted and a polar and a non-polar (lipid) fraction was obtained. For GC-MS analysis, the non-polar fraction was treated with methanol under acidic conditions to yield the fatty acid methyl esters. Both fractions were further derivatized with O-methyl-hydroxyamine hydrochloride and pyridine to convert Oxo-groups to O-methyloximes and subsequently with a silylating agent before analysis.
Following comprehensive analytical validation steps, the data for each analyte were normalized against data from pool samples. These samples were run in parallel through the whole process to account for process variability. The significance of treatment group values specific for sex, treatment duration and metabolite was determined by comparing means of the treated groups to the means of the respective untreated control groups using WELCH-test and quantified with treatment ratios versus control and p-values.

C. elegans = conditions: in vivo; cited from earlier work

SMILES: N=C(N)NN [Aminoguanidine, aminoguanidine]
- Order of effectiveness for glyoxal trapping, amine-containing drugs [1]: aminoguanidine>>pyridoxamine>metformin
- Scavenging of glyoxylate, diverting it from oxalate synthesis (glyoxylate [2]): demonstrated to scavenge glyoxylate

SMILES: O=CC(=O)O [Glyoxylate, glyoxylate]
- Effect on native/endogenous glyoxylate levels in C. elegans (glyoxylate [3]): significant increase of endogenous glyoxylate
- Ratio of glyoxylate concentrations in C. elegans, treatment/control (glyoxylate [3]): 1.81

SMILES: CN(C)C(=N)N=C(N)N [Metformin hydrochloride]
- Ratio treatment/control, plasma glyoxylate (glyoxylate [4]; High Dose 1 g/kg body weight, female rats, day 7 (f7)): 0.82
- Ratio treatment/control, plasma glyoxylate (glyoxylate [4]; High Dose 1 g/kg body weight, female rats, day 14 (f14)): 0.58
- Ratio treatment/control, plasma glyoxylate (glyoxylate [4]; High Dose 1 g/kg body weight, female rats, day 28 (f28)): 0.52
- Ratio treatment/control, plasma glyoxylate (glyoxylate [4]; High Dose 1 g/kg body weight, male rats, day 7 (m7)): 0.22
- Ratio treatment/control, plasma glyoxylate (glyoxylate [4]; High Dose 1 g/kg body weight, male rats, day 14 (m14)): 0.29
- Ratio treatment/control, plasma glyoxylate (glyoxylate [4]; High Dose 1 g/kg body weight, male rats, day 28 (m28)): 0.58
- Ratio treatment/control, plasma glyoxylate (glyoxylate [4]; Low Dose 0.2 g/kg body weight, female rats, day 7 (f7)): 1.01
- Ratio treatment/control, plasma glyoxylate (glyoxylate [4]; Low Dose 0.2 g/kg body weight, female rats, day 14 (f14)): 0.72
- Ratio treatment/control, plasma glyoxylate (glyoxylate [4]; Low Dose 0.2 g/kg body weight, female rats, day 28 (f28)): 0.64
- Ratio treatment/control, plasma glyoxylate (glyoxylate [4]; Low Dose 0.2 g/kg body weight, male rats, day 7 (m7)): 0.59
- Ratio treatment/control, plasma glyoxylate (glyoxylate [4]; Low Dose 0.2 g/kg body weight, male rats, day 14 (m14)): 0.65
- Ratio treatment/control, plasma glyoxylate (glyoxylate [4]; Low Dose 0.2 g/kg body weight, male rats, day 28 (m28)): 0.44

SMILES: CN(C)C(=N)N=C(N)N [Metformin, metformin]
- Effect on glyoxylate concentrations in a rat model system (glyoxylate [4]; summary of Table 2): strongly reducing glyoxylate concentrations
- Effect on glyoxylate-induced increase of endogenous glyoxylate in C. elegans (glyoxylate [3]; 50 mM metformin simultaneously to treatment with 20 mM glyoxylate): restored the native glyoxylate level
- Effect on native/endogenous glyoxylate levels in C. elegans (glyoxylate [3]): significantly decreased native glyoxylate levels
- Ratio of glyoxylate concentrations in C. elegans, treatment/control (glyoxylate [3]): 0.88
- Effect on lifespan in C. elegans (C. elegans): promote lifespan in C. elegans
- Order of effectiveness for glyoxal trapping, amine-containing drugs [1]: aminoguanidine>>pyridoxamine>metformin

SMILES: CC(=O)N[C@@H](CS)C(=O)O [N-acetyl-cysteine]
- Order of effectiveness for glyoxal trapping, thiol-containing drugs [1]: penicillamine>cysteine>N-acetyl-cysteine

SMILES: N[C@@H](CS)C(=O)O [cysteine]
- Order of effectiveness for glyoxal trapping, thiol-containing drugs [1]: penicillamine>cysteine>N-acetyl-cysteine

SMILES: CC(C)(S)[C@@H](N)C(=O)O [penicillamine]
- Order of effectiveness for glyoxal trapping, thiol-containing drugs [1]: penicillamine>cysteine>N-acetyl-cysteine
